Columns and labels:
RPE cells [1] = experiment: In vitro scratch wound healing assay upon TNFα stimulation; format: cell-based; conditions: 1 μM for 1 hour before 20 ng/ml TNFα, day 1 and 2
Description: FIG. 8A: Cell migration of RPE cells in in vitro scratch wound healing assay. RPE cells were treated with Mitomycin C for 3 hours. After the cells were treated with 1 μM 5Z-7 for 1 hour before adding 20 ng/ml TNFα and wounding on day 0. Photographs were taken at day 1 and 2, respectively, after the wound was made. FIG. 8B: Percentage of the gap size (*, P<0.05, t test); (**, P<0.01, t test). To further support the finding that TAK1 mediated EMT in RPE, we examined the migratory capacity of RPE cells, a well-known marker for EMT (Lee et al., J Cell Biol 2006, 172:973-981). Cell migration was tested by the scratch assay. The assay was performed on RPE cells pretreated or untreated with TAK1 inhibitor prior to stimulation with TGF-β1. […] At 24 hours, in the TGF-β1 treated culture, a major portion of the cells had already migrated into the wounded area, displaying almost complete wound closure at 48 hours.

RPE cells [2] = experiment: Cell size / morphology (rhodamine-phalloidin staining) upon TGF-β1; format: cell-based; conditions: 5Z-7-oxozeaenol 1 μM or SB431542 10 μM prior to TGF-β1
Description: FIG. 3A: RPE cells were plated on fibronectin-coated glass coverslips, serum-starved for 16 hours, pretreated with 5Z-7-oxozeaenol (1 μM) or SB431542 (10 μM), or DMSO for 1 hour, then treated with or without TGF-β1 for 2 days. Following treatment, the cells were stained with rhodamine-phalloidin (actin fibers-red) and DAPI (blue) and visualized by confocal microscopy. Scale bars: […]. FIG. 3B: Serum-starved RPE cells pretreated with 5Z-7-oxozeaenol (1 μM) or DMSO for 1 hour, and were exposed to TGF-β as in FIG. 3A. Total RNA was extracted at each time point and qPCR was performed. Transcription levels of CTGF were determined after 6 h, 16 h and 24 h. Bars represent the specific mRNA amount relative to GAPDH mRNA in the same samples. All experiments were performed in triplicates. A representative histogram from two independent experiments is shown. FIG. 3C: RPE cells were plated and treated as in FIG. 3A. Following treatment, the cells were immunostained with E-cadherin antibodies (green) and DAPI (blue). Representative photographs of two independent experiments are shown. In addition to the secretion of MMPs and increased migratory capacity, several morphological changes underlie EMT (Lamouille et al., I 2007, 178:437-451). […]

Smad2/3 = Smad2/3 phosphorylation by immuno-blot in RPE cells; format: cell-based
Description: (§1) FIG. 4A-4C: Inhibition of TAK1 abolishes the activation of TGF-β cascades. FIG. 4A: Serum-starved RPE cells were pretreated with or without with 5Z-7-oxozeaenol (1 μM) for 1 hour and then with TGF-β (2.5 ng/ml) for the indicated times. Total protein extracts were analyzed by western blot using the indicated antibodies. […] FIG. 4B: Levels of phospho-Smad2/3 were quantified and normalized to total Smad2/3 FIG. 4C: Statistical analysis of p-p38 and p-Smad3 activation normalized to p38 and Smad3 respectively, with or without TGF-β stimulation. The histograms present results of 5 independent experiments. Statistics were computed using student t-test (Two tailed distribution equal variance). Data is expressed as the Mean±SD. RPE cells were treated with or without 5Z-7-oxozeaenol followed by TGF-β1 treatment and Smad2/3 phosphorylation patterns were examined by immuno-blots. […] Upon TGF-β1 stimulation, the phosphorylation of p38 increased, reaching a peak at 60 min (FIGS. 4A and C).

p38 = p38 phosphorylation by immuno-blot in RPE cells; format: cell-based; conditions: 1 μM for 1 hour then TGF-β 2.5 ng/ml
Description: as §1

RPE cells [3] = experiment: Collagen lattice contraction upon TNFα stimulation; format: cell-based; conditions: 1 μM before 50 ng/ml TNFα, 72 hours
Description: FIG. 9: TAK1 regulates RPE cells contraction upon TNFα stimulation. […] RPE cells were seeded in collagen lattices in serum starvation medium. The cells were pretreated with 1 μM 5Z-7 or 1 hour before adding 50 ng/ml TNFα. Lattice were photo-documented after 72 hours and measured using ImajeJ software. The transition of RPE cells to myofibroblasts is characterized, among other aspects, by increased contractile activity (Umazume et al., Invest Ophthalmol Vis Sci 2013, 54:1150-1159; Sakamoto et al., Curr Eye Res 1994, 13:451-459; West-Mays et al., Int J Biochem Cell Biol 2006, 38:1625-1631; Ma et al., Clinical & experimental ophthalmology 2012, 40:e76-86). To examine whether TAK1 is a general regulator of the EMT process affecting cell contractility, floating collagen matrix contraction assay was performed. The test was carried out in full serum with or without TAK1 inhibitor (FIGS. 5A and 5B). While in the control cells significant contraction was observed after 24 hours, reaching 50% of the initial size, TAK1 inhibition impaired the capacity of the cells to contract. The collagen lattice remained nearly 80% from the initial size (FIGS. 5A and B).

c57Black mice = experiment: DSS-induced colitis in mice, fibrotic markers; format: in vivo; conditions: DSS 1.5% eight days, IP 180 ng per animal daily
Description: C57black mice were treated with dextran sodium sulfate (DSS)-S 1.5% diluted in water for eight days and with or without 5Z-7 (1 uM) was IP injected total 180 ng for each animal Daily. After eight days the mice underwent evaluation to detect abnormalities in the Colom structure. N=14 mice for each group, Student T-test was used to determine the p value. The chart in FIG. 13 compares known markers that are considered as the main morphological phenotype for colitis. […] C57black mice were treated with dextran sodium sulfate (DSS)-S 1.5% diluted in water for eight days and with or without 5Z-7 (1 uM) IP injected total 180 ng for each animal daily. After eight days the mice underwent evaluation to detect abnormalities in the colon structure. In mice treated with DSS all markers of fibrosis such as: granulation, Transparency, fibrin and blood vessels were elevated by the DSS.

COc1cc(O)c2c(c1)/C=C/C[C@H](O)[C@H](O)C(=O)/C=C\C[C@H](C)OC2=O [5Z-7-oxozeaenol]
migration rates of RPE cells treated with TNFα (RPE cells [1]): inhibited the migration rates
TGF-β1-induced increase in cell size (hypertrophic RPE cells) (RPE cells [2]): minimal number of hypertrophic RPE cells
Smad2/3 activation (phospho-Smad2/3) (Smad2/3; 1 μM for 1 hour then TGF-β 2.5 ng/ml): barely detectable
ratio of phospho-Smad2/3 to total Smad2/3 (Smad2/3; 1 μM, TGF-β1-stimulated, each time point): abolished Smad2/3 activation
p38 activation (phosphorylation) upon TGF-β1 stimulation (p38): abolished p38 activation
collagen contraction after EMT stimulation by TNFα (RPE cells [3]): significantly reduced collagen contraction
fibrotic markers of colitis (granulation, Transparency, fibrin, blood vessels) (c57Black mice): reduce the fibrotic markers

Reference: patent publication US10206900B2, “Treatments for fibrotic diseases” (MOR RESEARCH APPLICATIONS LTD., priority 2013, dated 2019)
